Source: publication PMC9065035, “Structural basis for the synthesis of the core 1 structure by C1GalT1” (Nature Communications, 2022)

Test: Activity of DmC1GalT1 mutants (UDP-Glo)
Type: biochemical, Drosophila melanogaster
Conditions: 500 µM UDP-Gal, 500 µM APDT*RP
Text: The DNA sequence encoding amino acid residues of the DmC1GalT1 (aa T43-Q388) was codon optimized and synthesized by GenScript (USA) for expression in HEK293 cells (GIBCO). The construct, containing at the 5′-end a recognition sequence for AgeI, and at the 3′-end a recognition sequence for KpnI, was cloned into a pHLSec plasmid that contained a sequence encoding a 6xHis tag at the 3′-end followed by a stop codon, rendering the vector pHLSec-DmC1GalT1-6His. The cloning of the construct into pHLSec was performed by GenScript. All mutants in DmC1GalT1 (R152A, Y213A, Y218A, D255A, W300A and Y325A) were generated following a standard site-directed mutagenesis protocol by GenScript using the vector pHLSec-DmC1GALT1-6His. pHLSec-DmC1GalT1-6His and all the plasmids encoding for the different mutants were transfected into HEK293 cell line as described below. For DNA amplification, all plasmids were transformed in E. coli DH5α cells and extracted with PureLink™ Expi Endotoxin-Free Giga Plasmid Purification Kit (Invitrogen) according to the manufacturer’s instructions. Cells were grown in suspension in a humidified 37 °C and 8% CO2 incubator with rotation at 125 rpm. Transfection was performed at a cell density of 2.5 × 10^6 cell/mL in fresh media F17 serum-free media (Gibco) with 2% Glutamax and 0.1% Kolliphor® P 188. For each 150 mL of culture, 450 μg of the plasmid (1 μg/μL) was mixed with 135 μL of sterilized 1.5 M NaCl. This mixture was added to each 150 mL cell culture flask and incubated for 5 min in the incubator. […] Cells were diluted 1:1 with pre-warmed media supplemented with valproic acid 24 h post-transfection to a final concentration of 2.2 mM. Then, cells were harvested 6 days post-transfection by spinning down at 300 × g for 5 min, after which the supernatants were collected and centrifuged at 4000 × g for 15 min. Supernatant was dialyzed against buffer A and loaded into a His-Trap Column (GE Healthcare). Protein was eluted with an imidazol gradient in buffer A from 10 mM up to 400 mM. Buffer exchange to buffer C was carried out using a HiPrep 26/10 Desalting Column (GE Healthcare). The isolated DmC1GalT1-His and its mutants were then loaded in HiLoad 26/60 Superdex 75 Colum (GE Healthcare), previously equilibrated with buffer C.

Row | Substance | decrease in activity with respect to the WT [fold] | activity of the mutant
1 | R152A: DmC1GalT1 Ala mutant of Arg152 | 15 | –
2 | W300A: DmC1GalT1 Ala mutant of Trp300 | – | inactive
3 | Y213A: DmC1GalT1 Ala mutant of Tyr213 | 25 | –
4 | Y218A: DmC1GalT1 Ala mutant of Tyr218 | – | inactive
5 | Y325A: DmC1GalT1 Ala mutant of Tyr325 | 25 | –
